Test results from patent publication US9090652B2, “Bile acid derivatives as FXR ligands for the prevention or treatment of FXR-mediated diseases or conditions” (Intercept Pharmaceuticals, Inc., priority 2006, dated 2015).
In brackets after ≈: the same amount, converted by molar mass. Entries after “also recorded” stand apart in the source; their conditions may differ. Where a name gives a salt, the structure may show the parent alone. Read-outs that look alike come from different tables or passages of the source. Marks after values point to notes of the source that are not given here.

How the values were obtained:
[1] = Hepatic metabolism and biliary secretion in bile fistula rat after iv infusion; format: in vivo; settings: for Main form / hepatic metabolite secreted in bile: at the administered dose
Protocol: The BA were administered by infusion to bile fistula rat and bile collected at 15 min intervals for 7 hours. The bile flow was measured and bile analyzed using HPLC-ES-MS-MS for the identification of the rate of biliary secretion and to evaluate the major hepatic metabolites.
Bile acids and their metabolites were determined by a liquid chromatography-tandem mass spectrometry (HPLC-MS/MS) method using electrospray (ESI) source in negative ionization mode. Rat bile samples were brought to room temperature and diluted 1:100 v/v-1:1000 v/v with 15 mM ammonium acetate buffer (pH=5). Then, 10 μL were injected into the chromatographic column. Liquid chromatography was performed using a Waters Alliance 2695 separation module coupled with autosampler. Bile acids were analyzed using a Synergi Hydro-RP C18 column (150×2.0 mm i.d., 4 μm particle size), protected by a SecurityGuard ODS 4×2.0 mm i.d. precolumn, both supplied from Phenomenex. Bile acids were separated in elution gradient using 15 mM ammonium acetate buffer (pH=5.00) as mobile phase A and acetonitrile as mobile phase B. Mobile phase B was increased from 30% to 64% in 12 min, then to 70% in 8 min, and finally brought to 100% in 10 min and held constant for 1 min. […] The column effluent was analysed by ESI-MS/MS using a Quattro-LC (Micromass) triple quadruple mass spectrometer operating in Multiple Reaction Monitoring (MRM) acquisition mode. MassLynx software version 4.0 was used for data acquisition and processing.

[2] = tested on: Intestinal bacteria (human stools cultures); experiment: Metabolic stability in human stools culture (7α-dehydroxylation); format: in vitro ADME
[3] = biological target: T1, bovine serum albumin (Bos taurus, UniProt P02769); experiment: Albumin binding by equilibrium dialysis; format: in vitro ADME; settings: 100 μM BA in 5% bovine serum albumin-saline, 25° C.
T1 construct: 5% bovine serum albumin-saline solution
T1 sequence (P02769 25-607): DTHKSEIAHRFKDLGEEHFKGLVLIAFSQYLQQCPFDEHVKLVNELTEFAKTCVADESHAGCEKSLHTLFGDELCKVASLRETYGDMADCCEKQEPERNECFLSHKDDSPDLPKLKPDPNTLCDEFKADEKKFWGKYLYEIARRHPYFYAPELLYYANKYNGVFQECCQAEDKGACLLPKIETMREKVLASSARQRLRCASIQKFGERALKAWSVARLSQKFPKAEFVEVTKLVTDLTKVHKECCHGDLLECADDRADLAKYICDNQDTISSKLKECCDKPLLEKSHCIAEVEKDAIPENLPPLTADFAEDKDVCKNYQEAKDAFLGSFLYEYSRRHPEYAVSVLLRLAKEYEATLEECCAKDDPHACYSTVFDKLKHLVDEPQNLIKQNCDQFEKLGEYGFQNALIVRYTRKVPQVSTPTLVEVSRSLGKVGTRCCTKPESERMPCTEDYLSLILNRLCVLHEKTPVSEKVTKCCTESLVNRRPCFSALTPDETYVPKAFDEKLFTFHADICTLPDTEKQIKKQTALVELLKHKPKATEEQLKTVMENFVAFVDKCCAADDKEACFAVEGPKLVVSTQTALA

[4] = 1-Octanol/water partition coefficient, shake-flask; settings: pH 8, 0.1 mM bile salt
[5] = tested on: pancreatic esterases (pancreatin); experiment: Metabolic stability in simulated duodenal/pancreatic fluid (USP); format: in vitro ADME, porcine
[6] = Critical micellar concentration by surface tension (maximum bubble-pressure); format: physicochemical; settings: for CMC NaCl 0.15M: in NaCl 0.15 M; for CMC H2O: in water
Protocol: This value was determined by surface tension measurements using a maximum bubble-pressure method. The tensiometer was a Sensadyne 6000 (Chem-Dyne Research Corp., Milwaukee, Wis.) equipped with two glass probes of 0.5 and 4.0 mm diameters connected to a source of nitrogen. The bubble frequency was 1 bubble/second in distilled water at 26° C. (P=2.7 atm) and the calibration was made with double-distilled water and methanol. The surface tension of BA sodium salts solutions both in water and in NaCl 0.15 M was measured at various concentrations range, 0.2-75 mM and 0.3-100 mM respectively. The surface tension values were plotted against the logarithm of the bile salt concentration; the regression lines corresponding to the two parts of the curve (monomeric and micellar phases) were calculated using the method of least squares, and the intersection of the lines was taken as the CMC value.

[7] = tested on: FXR related genes in liver; experiment: FXR target gene expression in liver of intact mice (Real-Time PCR); format: in vivo, Balb/c mice; settings: 4 days
[8] = biological target: T2, FXR (Homo sapiens, UniProt Q96RI1); experiment: Luciferase transactivation assay in transfected HepG2 cells; format: cell-based; settings: ammonium salt
T2 construct: expressed in transfected cells; host or cells: HepG2
T2 sequence (Q96RI1 1-486): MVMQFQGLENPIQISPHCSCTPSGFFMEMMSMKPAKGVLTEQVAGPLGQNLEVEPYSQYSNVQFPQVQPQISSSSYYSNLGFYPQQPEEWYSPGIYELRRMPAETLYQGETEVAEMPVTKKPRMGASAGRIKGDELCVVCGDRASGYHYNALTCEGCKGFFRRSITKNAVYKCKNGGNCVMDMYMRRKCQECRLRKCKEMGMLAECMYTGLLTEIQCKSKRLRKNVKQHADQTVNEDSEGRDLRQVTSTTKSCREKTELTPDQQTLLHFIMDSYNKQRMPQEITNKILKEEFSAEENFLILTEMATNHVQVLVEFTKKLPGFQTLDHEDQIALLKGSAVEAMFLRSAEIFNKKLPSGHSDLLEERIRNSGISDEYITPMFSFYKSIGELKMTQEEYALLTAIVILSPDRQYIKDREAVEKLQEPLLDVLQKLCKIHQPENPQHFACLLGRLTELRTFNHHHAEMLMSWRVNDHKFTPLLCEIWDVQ
T2 sequence (P19793 1-462 partner): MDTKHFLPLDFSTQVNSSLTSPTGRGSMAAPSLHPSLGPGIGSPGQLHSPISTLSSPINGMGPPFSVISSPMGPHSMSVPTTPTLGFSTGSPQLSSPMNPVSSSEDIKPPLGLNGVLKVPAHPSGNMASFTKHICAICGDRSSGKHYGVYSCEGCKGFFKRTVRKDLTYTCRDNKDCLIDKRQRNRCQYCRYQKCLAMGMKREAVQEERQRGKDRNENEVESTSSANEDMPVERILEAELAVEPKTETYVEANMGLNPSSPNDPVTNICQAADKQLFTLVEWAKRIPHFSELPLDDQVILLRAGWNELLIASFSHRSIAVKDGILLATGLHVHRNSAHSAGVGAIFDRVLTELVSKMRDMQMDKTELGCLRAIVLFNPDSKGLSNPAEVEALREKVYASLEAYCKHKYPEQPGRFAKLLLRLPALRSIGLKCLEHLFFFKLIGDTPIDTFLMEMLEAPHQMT

[9] = tested on: ANIT-induced cholestasis; experiment: ANIT-induced cholestasis in rat; format: in vivo, Wistar rats; settings: ANIT treated rats, ammonium salt
Protocol: Wistar Rats studies were approved by the Animal Study Committee of the University of Perugia. Male Wistar rats (200-250 g) were obtained from Charles River Breeding Laboratories (Portage, Mich.) and maintained on standard laboratory rat chow on a 12-h light/dark cycle. […] Control rats (N=4) were administered vehicle (physiologic solution I.P.). At the end of the study, rats were sacrificed under anaesthesia with sodium pentobarbital (50 mg/kg i.p.) and terminally bled via cardiac puncture; the liver was removed and weighted for examination and blood samples were taken. Rat genes expression was evaluated by quantitative real-time polymerase chain reaction (RT-PCR) as previously described herein.

[10] = pH 1
[11] = Critical micellar pH; format: physicochemical; settings: CMpH=pKa+log CMC/WS
Source text: This value can be experimentally determined by evaluating the pH at which a given BA starts to precipitate from a micellar solution. It can be calculated from the CMC Water solubility of the protonated species and pKa using the formula: CMpH=pKa+log CMC/WS.

[12] = pH 8
[13] = values from literature, cited from earlier work; for CMC NaCl 0.15M: in NaCl 0.15 M; for CMC H2O: in water
[14] = Water solubility of protonated bile acids; settings: 0.1 M HCl, pH 1, simulated gastric fluid, thermodynamic from solid
[15] = tested on: ANIT-induced cholestasis; settings: previous unpublished studies by Fiorucci et al.; cited from earlier work
[16] = value from literature; cited from earlier work
[17] = 5 mg/kg intraperitoneal, ammonium salt

Row | % Binding (albumin) [3] | LogPA− (1-octanol-water partition coefficient, ionized species) [4] | CMpH (critical micellar pH) [11] | SMILES | ST50: Surface Tension of 50 mM aqueous solution [6] | STCMC: Surface Tension at CMC in water [6] | CMC NaCl 0.15M [6] | CMC H2O [6] | further results
1 |  |  |  | CC[C@H]1[C@@H](O)C2C3CCC(C(C)CCOS(=O)(=O)O)[C@@]3(C)CCC2[C@@]2(C)CC[C@@H](O)C[C@@H]12 (stereo partly drawn) [UPF-987, 3α,7α,23-trihydroxy-6α-ethyl-24-nor-5β-cholan-23-sulphate triethyl ammonium salt] |  |  |  |  | Liver BSEP expression [7, 17]: potent induction; also recorded: induces liver; Liver SHP expression [7, 17]: potent induction; also recorded: induces liver; Downregulation of liver Cyp7a1 ([7]; 5 mg/kg): 60-70%; Liver FAS mRNA expression ([7]; 5 mg/kg, ammonium salt): reduced; inhibition at 5 mg/kg ([7]; Mus musculus, 96 h, read-out: Inhibition of liver SREBP-1c): 90%; Transactivation of FXR [8]: transactivates FXR; Liver injury / cholestasis (plasma AST, γGT, alkaline phosphatase, cholesterol) ([9]; UPF-987 5 and 3 mg/kg daily): attenuates liver injury; also recorded: reduces ANIT; Liver expression of NTCP, CYP7A1 and BSEP [9]: modulates liver
2 |  | 0.9 |  | C[C@H](CCC(=O)NCCS(=O)(=O)O)[C@H]1CC[C@H]2[C@@H]3[C@H](O)C[C@@H]4C[C@H](O)CC[C@]4(C)[C@H]3CC[C@]12C [TCDCA] |  |  |  |  | CMC NaCl 0.15M [13]: 3.0* mM; CMC H2O [13]: 7.0* mM
3 | 96% | 2.5 | 7.6 | CC[C@H]1[C@@H](O)[C@@H]2[C@H](CC[C@]3(C)[C@@H]([C@H](C)CCC(=O)O)CC[C@@H]23)[C@@]2(C)CC[C@@H](O)C[C@@H]12 [INT-747, 3α,7α-dihydroxy-6α-ethyl-5β-cholan-24-oic acid] | 43.2 Dyne/cm | 48.8 Dyne/cm | 2.9 mM | 4.5 mM | Main form / hepatic metabolite secreted in bile [1]: taurine conjugate; Stability in human stool cultures [2]: very stable; solubility at 1 week [14]: 9 µM (≈ 3.79 µg/mL); CMpH (critical micellar pH) ([11]; listed as UPF 747): 7.7; Concentration at which a gel phase forms ([6]; in the presence of Na+ 0.15 M): > 60000 µM; Reduction of liver injury in ANIT model [15]: not effective
4 | 67% |  |  | C[C@H](CCC(=O)NCCS(=O)(=O)O)[C@H]1CC[C@H]2[C@@H]3[C@@H](O)C[C@@H]4C[C@H](O)CC[C@]4(C)[C@H]3CC[C@]12C [TUDCA] |  |  |  |  | LogPA− (1-octanol-water partition coefficient, ionized species) [16]: 1.0*; CMC NaCl 0.15M [13]: 2.2* mM; CMC H2O [13]: 8.0* mM
5 | 93% | 2.2 | 7.6 | C[C@H](CCC(=O)O)[C@H]1CC[C@H]2[C@@H]3[C@H](O)C[C@@H]4C[C@H](O)CC[C@]4(C)[C@H]3CC[C@]12C [CDCA, chenodeoxycholic acid] | 48.5 Dyne/cm | 55.6 Dyne/cm | 3.0 mM | 7.5 mM | Half-life time ([2]; human stool cultures): one; Metabolism (7-dehydroxylation to lithocholic acid) ([2]; human stool cultures, after 8 hours of incubation): almost completely metabolized

Row | SMILES | % Binding (albumin) [3] | LogPA− (1-octanol-water partition coefficient, ionized species) [4] | CMpH (critical micellar pH) [11] | ST50: Surface Tension of 50 mM aqueous solution [6] | STCMC: Surface Tension at CMC in water [6] | CMC NaCl 0.15M [6] | CMC H2O [6] | further results
6 | CC[C@H]1[C@@H](O)C2C3CCC(C(C)CCOS(=O)(=O)[O-])[C@@]3(C)CCC2[C@@]2(C)CC[C@@H](O)C[C@@H]12.[Na+] (stereo partly drawn) [INT-1103, 3α,7α,23-trihydroxy-6α-ethyl-24-nor-5β-cholan-23-sulphate sodium salt] | 85% | 2.0 |  | 43.3 Dyne/cm | 47.9 Dyne/cm | 1.3 mM | 3.9 mM | Main form / hepatic metabolite secreted in bile [1]: 3-glucoronide; Amount of administered dose secreted into bile ([1]; iv infusion 3 umol/Kg/min, bile collected 7 hours): 30-40%; Stability in human stool cultures [2]: very stable; Stability in simulated pancreatic fluid ([5]; 50 μM, 37° C., up to 240 min): very stable; Hydrolysis of ester bond (sulphate) by pancreatic esterases ([5]; simulated pancreatic fluid): not hydrolyzed
7 | C[C@H](CCC(=O)O)[C@H]1CC[C@H]2[C@@H]3[C@@H](O)C[C@@H]4C[C@H](O)CC[C@]4(C)[C@H]3CC[C@]12C [UDCA] | 94% |  | 8.4 | 50.4 Dyne/cm | 63.0 Dyne/cm | 6.0 mM | 26 mM | Water Solubility [10]: 7.5 µM; LogPA− (1-octanol-water partition coefficient, ionized species) [12]: 2.2
